# Experimental data taken from ChEMBL document CHEMBL5120812, “Cytotoxic Nitrobenzoyl Sesquiterpenoids from an Antarctica Sponge-Derived Aspergillus insulicola” (J Nat Prod, 2022).
# Calls of active or inactive are those of the source. The rule behind the calls is not given here.
# Legend:
# [1] = test system: PANC-1; assay: Induction of apoptosis in human PANC-1 cells assessed as late apototic cells at 1.25 uM incubated for 24 hrs by annexinV-FITC and PI staining based flow cytometry analysis (reference value: 5.71 %); type: functional
# [2] = test system: PANC-1; assay: Induction of apoptosis in human PANC-1 cells assessed as increase in cleaved caspase 3 level incubated for 24 hrs by Western blot analysis; type: functional, cell-based; details: dose 1.25-5 µM, DDE = dose-dependent effect
# [3] = test system: ASPC1; assay: Induction of apoptosis in human ASPC1 cells assessed as early apoptotic cells at 1.25 uM incubated for 24 hrs by annexinV-FITC and PI staining based flow cytometry analysis (reference value: 1.56 %); type: functional
# [4] = test system: PANC-1; assay: Downregulation of Bcl-2 level in human PANC-1 cells upto 5 uM incubated for 24 hrs by Western blot analysis; type: functional, cell-based
# [5] = test system: PANC-1; assay: Cytotoxicity against human PANC-1 cells assessed as inhibition of cell proliferation at 0.94 to 30 uM by SRB assay; type: functional, cell-based; details: dose 0.94-30 µM, time 24-72 hrs, TDE = time-dependent effect
# [6] = test system: ASPC1; assay: Downregulation of Bcl-2 level in human ASPC1 cells upto 5 uM incubated for 24 hrs by Western blot analysis; type: functional, cell-based
# [7] = test system: ASPC1; assay: Induction of apoptosis in human ASPC1 cells assessed as early apoptotic cells at 5 uM incubated for 24 hrs by annexinV-FITC and PI staining based flow cytometry analysis (reference value: 1.56 %); type: functional
# [8] = test system: ASPC1; assay: Downregulation of survivin level in human ASPC1 cells upto 5 uM incubated for 24 hrs by Western blot analysis; type: functional, cell-based
# [9] = test system: PANC-1; assay: Cytotoxicity against human PANC-1 cells assessed as inhibition of cell proliferation incubated for 24 to 72 hrs by SRB assay; type: functional, cell-based; details: dose 0.94-30 µM, time 24-72 hrs, DDE = dose-dependent effect
# [10] = test system: ASPC1; assay: Cytotoxicity against human ASPC1 cells assessed as inhibition of cell growth incubated for 72 hrs by SRB assay; type: functional, cell-based; details: ASPC1, 72 h
# [11] = test system: PANC-1; assay: Induction of apoptosis in human PANC-1 cells assessed as increase in caspase 3 enzymatic activity upto 5 uM incubated for 24 hrs by Western blot analysis; type: functional, cell-based
# [12] = test system: ASPC1; assay: Inhibition of cell migration in human ASPC1 cells at 0.94 to 3.75 uM incubated for 24 hrs by wound healing assay; type: functional, cell-based; details: dose 0.94-3.75 µM
# [13] = test system: PANC-1; assay: Downregulation of survivin level in human PANC-1 cells upto 5 uM incubated for 24 hrs by Western blot analysis; type: functional, cell-based
# [14] = test system: ASPC1; assay: Induction of apoptosis in human ASPC1 cells assessed as viable cells at 2.50 uM incubated for 24 hrs by annexinV-FITC and PI staining based flow cytometry analysis (reference value: 96.0 %); type: functional; details: read-out: Activity
# [15] = test system: ASPC1; assay: Induction of apoptosis in human ASPC1 cells assessed as increase in cleaved caspase 9 level incubated for 24 hrs by Western blot analysis; type: functional, cell-based; details: dose 1.25-5 µM, DDE = dose-dependent effect
# [16] = test system: ASPC1; assay: Induction of apoptosis in human ASPC1 cells assessed as suppression of XIAP expression at upto 5 uM incubated for 24 hrs by Western blot analysis; type: functional, cell-based
# [17] = test system: PANC-1; assay: Antiinvasive activity in human PANC-1 cells assessed as decrease in cell invasion at 0.94 to 3.75 uM incubated for 24 hrs by crystal violet staining based transwell assay; type: functional; details: dose 0.94-3.75 µM
# [18] = target: Epidermal growth factor receptor (Homo sapiens) (UniProt P00533); assay: Inhibition of EGFR downstream signalling in human PANC-1 cells assessed as reduction of Akt phosphorylation upto 5 uM incubated for 24 hrs by Western blot analysis; type: cell-based
# [19] = test system: PANC-1; assay: Induction of apoptosis in human PANC-1 cells assessed as necrotic cells at 1.25 uM incubated for 24 hrs by annexinV-FITC and PI staining based flow cytometry analysis (reference value: 0.14 %); type: functional
# [20] = test system: PANC-1; assay: Upregulation of cleaved caspase 3 expression in human PANC-1 cells incubated for 24 hrs in presence of gemcitabine by Western blot analysis; type: functional, cell-based
# [21] = target: Epidermal growth factor receptor (Homo sapiens) (UniProt P00533); assay: Inhibition of EGFR expression in human ASPC1 cells upto 5 uM incubated for 24 hrs by Western blot analysis; type: cell-based
# [22] = test system: MDA-MB-231; assay: Cytotoxicity against human MDA-MB-231 cells assessed as inhibition of cell growth incubated for 72 hrs by SRB assay; type: functional, cell-based; details: MDA-MB-231, 72 h
# [23] = test system: PANC-1; assay: Induction of apoptosis in human PANC-1 cells assessed as late apototic cells at 5 uM incubated for 24 hrs by annexinV-FITC and PI staining based flow cytometry analysis (reference value: 5.71 %); type: functional
# [24] = test system: ASPC1; assay: Induction of apoptosis in human ASPC1 cells assessed as early apoptotic cells at 2.50 uM incubated for 24 hrs by annexinV-FITC and PI staining based flow cytometry analysis (reference value: 1.56 %); type: functional; details: dose 2.5 µM
# [25] = target: Epidermal growth factor receptor (Homo sapiens) (UniProt P00533); assay: Inhibition of EGFR downstream signalling in human ASPC1 cells assessed as reduction of Akt phosphorylation upto 5 uM incubated for 24 hrs by Western blot analysis; type: cell-based
# [26] = test system: ASPC1; assay: Antiinvasive activity in human ASPC1 cells assessed as decrease in cell invasion at 0.94 to 3.75 uM incubated for 24 hrs by crystal violet staining based transwell assay; type: functional; details: dose 0.94-3.75 µM
# [27] = test system: PANC-1; assay: Induction of apoptosis in human PANC-1 cells assessed as early apototic cells at 5 uM incubated for 24 hrs by annexinV-FITC and PI staining based flow cytometry analysis (reference value: 4.66 %); type: functional
# [28] = target: Epidermal growth factor receptor (Homo sapiens) (UniProt P00533); assay: Inhibition of EGFR downstream signalling in human ASPC1 cells assessed as reduction of STAT3 phosphorylation upto 5 uM incubated for 24 hrs by Western blot analysis; type: cell-based
# [29] = test system: PANC-1; assay: Induction of apoptosis in human PANC-1 cells assessed as viable cells at 5 uM incubated for 24 hrs by annexinV-FITC and PI staining based flow cytometry analysis (reference value: 89.5 %); type: functional; details: read-out: Activity
# [30] = target: Epidermal growth factor receptor (Homo sapiens) (UniProt P00533); assay: Inhibition of EGFR expression in human PANC-1 cells upto 5 uM incubated for 24 hrs by Western blot analysis; type: cell-based
# [31] = test system: PANC-1; assay: Induction of apoptosis in human PANC-1 cells assessed as late apototic cells at 2.50 uM incubated for 24 hrs by annexinV-FITC and PI staining based flow cytometry analysis (reference value: 5.71 %); type: functional; details: dose 2.5 µM
# Chain of Epidermal growth factor receptor (Homo sapiens) (P00533 whole entry): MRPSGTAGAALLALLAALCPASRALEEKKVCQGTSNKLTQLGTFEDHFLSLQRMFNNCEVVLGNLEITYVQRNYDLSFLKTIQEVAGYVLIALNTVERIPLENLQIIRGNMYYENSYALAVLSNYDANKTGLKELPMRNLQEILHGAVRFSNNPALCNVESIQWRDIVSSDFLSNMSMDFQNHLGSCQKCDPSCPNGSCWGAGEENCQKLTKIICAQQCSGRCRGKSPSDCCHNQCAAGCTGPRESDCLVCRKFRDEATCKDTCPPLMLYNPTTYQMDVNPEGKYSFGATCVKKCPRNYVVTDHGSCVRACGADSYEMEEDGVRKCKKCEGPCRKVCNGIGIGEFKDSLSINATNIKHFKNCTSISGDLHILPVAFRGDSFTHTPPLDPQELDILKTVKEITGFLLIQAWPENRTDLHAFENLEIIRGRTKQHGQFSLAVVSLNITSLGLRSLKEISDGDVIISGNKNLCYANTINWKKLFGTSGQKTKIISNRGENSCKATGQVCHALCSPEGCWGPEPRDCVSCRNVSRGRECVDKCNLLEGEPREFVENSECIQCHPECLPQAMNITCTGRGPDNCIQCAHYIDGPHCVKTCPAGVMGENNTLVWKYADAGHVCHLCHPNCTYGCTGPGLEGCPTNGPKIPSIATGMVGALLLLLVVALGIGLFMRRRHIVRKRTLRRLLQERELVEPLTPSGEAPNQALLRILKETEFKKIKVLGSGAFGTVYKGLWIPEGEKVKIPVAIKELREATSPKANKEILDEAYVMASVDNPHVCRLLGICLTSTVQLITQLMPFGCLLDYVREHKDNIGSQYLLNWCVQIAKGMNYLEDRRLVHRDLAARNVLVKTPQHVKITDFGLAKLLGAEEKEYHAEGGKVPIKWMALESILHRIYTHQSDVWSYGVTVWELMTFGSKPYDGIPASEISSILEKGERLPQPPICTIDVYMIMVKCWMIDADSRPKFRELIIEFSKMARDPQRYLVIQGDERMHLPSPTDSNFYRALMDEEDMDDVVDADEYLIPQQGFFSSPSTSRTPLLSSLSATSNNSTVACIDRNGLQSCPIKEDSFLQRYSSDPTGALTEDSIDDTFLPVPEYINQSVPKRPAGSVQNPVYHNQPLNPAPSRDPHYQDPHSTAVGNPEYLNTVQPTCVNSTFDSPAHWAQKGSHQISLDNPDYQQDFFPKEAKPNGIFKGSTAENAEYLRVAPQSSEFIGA
compound,measurement,setting,value
COC(=O)CCCCCCC/C=C/C(=O)OC[C@@]1(C)CCC[C@@]2(C)[C@H]1[C@H](OC(=O)c1ccc([N+](=O)[O-])cc1)C=C1C(=O)OC[C@@]12O,Activity,[1],3.09%
same,Activity,[2],Dde
same,Activity,[3],5.77%
same,Activity,[4],Active
same,Activity,[5],Tde
same,Activity,[6],Active
same,Activity,[7],2.98%
same,Activity,[8],Active
same,Activity,[9],Dde
same,IC50,[10],2.3 µM
same,Activity,[11],Active
same,inhibition,[12],Active
same,Activity,[13],Active
same,viability at 2.5 µM,[14],87.7%
same,Activity,[15],Dde
same,Activity,[16],Active
same,Activity,[17],Active
same,inhibition,[18],Active
same,Activity,[19],0.22%
same,Activity,[20],Active
same,inhibition,[21],Active
same,IC50,[22],22.9 µM
same,Activity,[23],23.1%
same,Activity,[24],7.03%
same,inhibition,[25],Active
same,Activity,[26],Active
same,Activity,[27],7.12%
same,inhibition,[28],Active
same,viability at 5 µM,[29],69.6%
same,inhibition,[30],Active
same,Activity,[31],13.6%
